pEC50: −log10 of the molar value.

For the first test, the system named is RS4;11 cells. In words: RS4;11 cell viability assay (CellTiter Glo).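 Further: acute lymphoblastic leukemia line RS4,11, EC50 derived from percentage of viable cells after treatment relative to untreated controls, cell killing taken as a measure of Bcl-2 inhibition.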 It counts as cell-based, human. Particulars: Homo sapiens, RS4-11, 48 h, 50,000 cells per well, 10% human serum, 48 hours; read-out: RS4; 11 EC50 Values. Background: In ATP-based viability assays light output follows the ATP content of the culture.
Experimental: The acute lymphoblastic leukemia (ALL) cell line RS4;11 was used as the primary human cell line to assess the cellular activity of Bcl-2 selective agents in vitro and their efficacy in vivo.
Cell cytotoxicity EC50 values were assessed using CellTiter Glo (Promega) according to the manufacturer's recommendations. The EC50 values were determined as a percentage of viable cells following treatment compared to the untreated control cells.
On to `CC1(C)CCC(CN2CCN(c3ccc(C(=O)NS(=O)(=O)c4ccc(NCCCN5CCOCC5)c([N+](=O)[O-])c4)c(Oc4cnc5[nH]ccc5c4)c3)CC2)=C(c2ccc(Cl)cc2)C1` [Example 55, 4-(4-{[2-(4-chlorophenyl)-4,4-dimethylcyclohex-1-en-1-yl]methyl}piperazin-1-yl)-N-({4-[(3-morpholin-4-ylpropyl)amino]-3-nitrophenyl}sulfonyl)-2-(1H-pyrrolo[2,3-b]pyridin-5-yloxy)benzamide], for which the pEC50 is 7.88.

On to `CC1(C)CCC(CN2CCN(c3ccc(C(=O)NS(=O)(=O)c4ccc(OCC5(C)CCOCC5)c([N+](=O)[O-])c4)c(Oc4cnc5[nH]ccc5c4)c3)CC2)=C(c2ccc(Cl)cc2)C1` [Example 221, 4-(4-{[2-(4-chlorophenyl)-4,4-dimethylcyclohex-1-en-1-yl]methyl}piperazin-1-yl)-N-({4-[(4-methyltetrahydro-2H-pyran-4-yl)methoxy]-3-nitrophenyl}sulfonyl)-2-(1H-pyrrolo[2,3-b]pyridin-5-yloxy)benzamide], for which the pEC50 is 7.02.

Regarding `O=C(NS(=O)(=O)c1ccc(NCC2CCOCC2)c([N+](=O)[O-])c1)c1ccc(N2CCN(CC3=C(c4ccc(Cl)cc4)CC4(CC3)CC4)CC2)cc1Oc1cnc2[nH]ccc2c1` [Example 328, 4-(4-{[5-(4-chlorophenyl)spiro[2.5]oct-5-en-6-yl]methyl}piperazin-1-yl)-N-({3-nitro-4-[(tetrahydro-2H-pyran-4-ylmethyl)amino]phenyl}sulfonyl)-2-(1H-pyrrolo[2,3-b]pyridin-5-yloxy)benzamide], the pEC50 is 8.01.

In the case of `CC(C)(CO)CNc1ccc(S(=O)(=O)NC(=O)c2ccc(N3CCN(CC4=C(c5ccc(Cl)cc5)CC(C)(C)CC4)CC3)cc2Oc2cnc3[nH]ccc3c2)cc1[N+](=O)[O-]` [Example 146, 4-(4-{[2-(4-chlorophenyl)-4,4-dimethylcyclohex-1-en-1-yl]methyl}piperazin-1-yl)-N-({4-[(3-hydroxy-2,2-dimethylpropyl)amino]-3-nitrophenyl}sulfonyl)-2-(1H-pyrrolo[2,3-b]pyridin-5-yloxy)benzamide], the pEC50 was 7.72.

As to `CC1(C)CCC(CN2CCN(c3ccc(C(=O)NS(=O)(=O)c4ccc(N[C@H]5CC[C@H](N6CCN(C7CCOCC7)CC6)CC5)c([N+](=O)[O-])c4)c(Oc4cnc5[nH]ccc5c4)c3)CC2)=C(c2ccc(Cl)cc2)C1` [Example 128, Trans-4-(4-{[2-(4-chlorophenyl)-4,4-dimethylcyclohex-1-en-1-yl]methyl}piperazin-1-yl)-N-[(3-nitro-4-{[4-(4-tetrahydro-2H-pyran-4-ylpiperazin-1-yl)cyclohexyl]amino}phenyl)sulfonyl]-2-(1H-pyrrolo[2,3-b]pyridin-5-yloxy)benzamide], the pEC50 is 8.23.

With `CC1(C)CCC(CN2CCN(c3ccc(C(=O)NS(=O)(=O)c4ccc(O[C@H]5CC[C@H](N6CCOCC6)CC5)c([N+](=O)[O-])c4)c(Oc4cnc5[nH]ccc5c4)c3)CC2)=C(c2ccc(Cl)cc2)C1` [Example 60, Trans-4-(4-{[2-(4-chlorophenyl)-4,4-dimethylcyclohex-1-en-1-yl]methyl}piperazin-1-yl)-N-({4-[(4-morpholin-4-ylcyclohexyl)oxy]-3-nitrophenyl}sulfonyl)-2-(1H-pyrrolo[2,3-b]pyridin-5-yloxy)benzamide], the pEC50 is 7.23.

For the compound `CN1CCC(Nc2ccc(S(=O)(=O)NC(=O)c3ccc(N4CCN(CC5=C(c6ccc(Cl)cc6)CC(C)(C)OC5)CC4)cc3Oc3cnc4[nH]ccc4c3)cc2S(=O)(=O)C(F)(F)F)CC1` [Example 45, 4-(4-{[4-(4-chlorophenyl)-6,6-dimethyl-5,6-dihydro-2H-pyran-3-yl]methyl}piperazin-1-yl)-N-({4-[(1-methylpiperidin-4-yl)amino]-3-[(trifluoromethyl)sulfonyl]phenyl}sulfonyl)-2-(1H-pyrrolo[2,3-b]pyridin-5-yloxy)benzamide], the pEC50 is 8.00.

Consider `CC1(C)CCC(CN2CCN(c3ccc(C(=O)NS(=O)(=O)c4cnc(OCC5CCOCC5)c(C(F)(F)F)c4)c(Oc4cnc5[nH]ccc5c4)c3)CC2)=C(c2ccc(Cl)cc2)C1` [Example 297, 4-(4-{[2-(4-chlorophenyl)-4,4-dimethylcyclohex-1-en-1-yl]methyl}piperazin-1-yl)-2-(1H-pyrrolo[2,3-b]pyridin-5-yloxy)-N-{[6-(tetrahydro-2H-pyran-4-ylmethoxy)-5-(trifluoromethyl)pyridin-3-yl]sulfonyl}benzamide], for which the pEC50 is 6.23.

With `CC(=O)N1CCCC(CNc2ccc(S(=O)(=O)NC(=O)c3ccc(N4CCN(CC5=C(c6ccc(Cl)cc6)CC(C)(C)CC5)CC4)cc3Oc3cnc4[nH]ccc4c3)cc2[N+](=O)[O-])C1` (stereo not shown) [Example 148, N-[(4-{[(1-acetylpiperidin-3-yl)methyl]amino}-3-nitrophenyl)sulfonyl]-4-(4-{[2-(4-chlorophenyl)-4,4-dimethylcyclohex-1-en-1-yl]methyl}piperazin-1-yl)-2-(1H-pyrrolo[2,3-b]pyridin-5-yloxy)benzamide], the pEC50 was 8.03.

For `CC1(C)CCC(CN2CCN(c3ccc(C(=O)NS(=O)(=O)c4ccc(OCC5(F)CCN(C6CC6)CC5)c([N+](=O)[O-])c4)c(Oc4cnc5[nH]ccc5c4)c3)CC2)=C(c2ccc(Cl)cc2)C1` [Example 173, 4-(4-{[2-(4-chlorophenyl)-4,4-dimethylcyclohex-1-en-1-yl]methyl}piperazin-1-yl)-N-({4-[(1-cyclopropyl-4-fluoropiperidin-4-yl)methoxy]-3-nitrophenyl}sulfonyl)-2-(1H-pyrrolo[2,3-b]pyridin-5-yloxy)benzamide], the pEC50 was 8.29.

With `CC1(C)CCC(CN2CCN(c3ccc(C(=O)NS(=O)(=O)c4cnc(O[C@H]5CC[C@H](N6CCOCC6)CC5)c(Br)c4)c(Oc4cnc5[nH]ccc5c4)c3)CC2)=C(c2ccc(Cl)cc2)C1` [Example 124, Trans-N-({5-bromo-6-[(4-morpholin-4-ylcyclohexyl)oxy]pyridin-3-yl}sulfonyl)-4-(4-{[2-(4-chlorophenyl)-4,4-dimethylcyclohex-1-en-1-yl]methyl}piperazin-1-yl)-2-(1H-pyrrolo[2,3-b]pyridin-5-yloxy)benzamide], the pEC50 was 6.67.

With `CC1(C)CC(c2ccc(Cl)cc2)=C(CN2CCN(c3ccc(C(=O)NS(=O)(=O)c4cnc(OCC5CCOCC5)c(C#N)c4)c(Oc4cnc5[nH]ccc5c4)c3)CC2)CO1` [Example 35, 4-(4-{[4-(4-chlorophenyl)-6,6-dimethyl-5,6-dihydro-2H-pyran-3-yl]methyl}piperazin-1-yl)-N-{[5-cyano-6-(tetrahydro-2H-pyran-4-ylmethoxy)pyridin-3-yl]sulfonyl}-2-(1H-pyrrolo[2,3-b]pyridin-5-yloxy)benzamide], the pEC50 was 6.54.

As for `O=C(NS(=O)(=O)c1ccc(NCC2CCOCC2)c([N+](=O)[O-])c1)c1ccc(N2CCN(Cc3ccccc3-c3ccc(Cl)cc3)CC2)cc1Oc1cnc2[nH]ccc2c1` [Example 1, 4-{4-[(4′-chloro-1,1′-biphenyl-2-yl)methyl]piperazin-1-yl}-N-({3-nitro-4-[(tetrahydro-2H-pyran-4-ylmethyl)amino]phenyl}sulfonyl)-2-(1H-pyrrolo[2,3-b]pyridin-5-yloxy)benzamide], the pEC50 is 6.15.

Regarding `CN1CCC(F)(COc2ncc(S(=O)(=O)NC(=O)c3ccc(N4CCN(CC5=C(c6ccc(Cl)cc6)CC(C)(C)CC5)CC4)cc3Oc3cnc4[nH]ccc4c3)cc2Cl)CC1` [Example 269, N-({5-chloro-6-[(4-fluoro-1-methylpiperidin-4-yl)methoxy]pyridin-3-yl}sulfonyl)-4-(4-{[2-(4-chlorophenyl)-4,4-dimethylcyclohex-1-en-1-yl]methyl}piperazin-1-yl)-2-(1H-pyrrolo[2,3-b]pyridin-5-yloxy)benzamide], the pEC50 is 8.14.

`CC1(C)CCC(CN2CCN(c3ccc(C(=O)NS(=O)(=O)c4ccc(NCCC#N)c([N+](=O)[O-])c4)c(Oc4cnc5[nH]ccc5c4)c3)CC2)=C(c2ccc(Cl)cc2)C1` [Example 62, 4-(4-{[2-(4-chlorophenyl)-4,4-dimethylcyclohex-1-en-1-yl]methyl}piperazin-1-yl)-N-({4-[(2-cyanoethyl)amino]-3-nitrophenyl}sulfonyl)-2-(1H-pyrrolo[2,3-b]pyridin-5-yloxy)benzamide]: the pEC50 was 7.60.

`CC1(C)CCC(CN2CCN(c3ccc(C(=O)NS(=O)(=O)c4ccc(NC[C@H]5CN(C6COC6)CCO5)c([N+](=O)[O-])c4)c(Oc4cnc5[nH]ccc5c4)c3)CC2)=C(c2ccc(Cl)cc2)C1` [Example 361, 4-(4-{[2-(4-chlorophenyl)-4,4-dimethylcyclohex-1-en-1-yl]methyl}piperazin-1-yl)-N-{[3-nitro-4-({[(2S)-4-(oxetan-3-yl)morpholin-2-yl]methyl}amino)phenyl]sulfonyl}-2-(1H-pyrrolo[2,3-b]pyridin-5-yloxy)benzamide]: the pEC50 is 9.27.

With `CC1(C)CCC(CN2CCN(c3ccc(C(=O)NS(=O)(=O)c4cnc(OC[C@H]5CC[C@H](O)CC5)c(Cl)c4)c(Oc4cnc5[nH]ccc5c4)c3)CC2)=C(c2ccc(Cl)cc2)C1` [Example 298, N-({5-chloro-6-[(trans-4-hydroxycyclohexyl)methoxy]pyridin-3-yl}sulfonyl)-4-(4-{[2-(4-chlorophenyl)-4,4-dimethylcyclohex-1-en-1-yl]methyl}piperazin-1-yl)-2-(1H-pyrrolo[2,3-b]pyridin-5-yloxy)benzamide], the pEC50 was 7.15.

For `CC1(C)CCC(CN2CCN(c3ccc(C(=O)NS(=O)(=O)c4cnc(OCC5(F)CCN(C6COC6)CC5)c(Cl)c4)c(Oc4cnc5[nH]ccc5c4)c3)CC2)=C(c2ccc(Cl)cc2)C1` [Example 277, N-[(5-chloro-6-{[4-fluoro-1-(oxetan-3-yl)piperidin-4-yl]methoxy}pyridin-3-yl)sulfonyl]-4-(4-{[2-(4-chlorophenyl)-4,4-dimethylcyclohex-1-en-1-yl]methyl}piperazin-1-yl)-2-(1H-pyrrolo[2,3-b]pyridin-5-yloxy)benzamide], the pEC50 was 8.09.

The test is the same for the next values; noted with them: Homo sapiens, RS4-11, Table 5, direct comparison Z=N with corresponding analogs Z=C; read-out: RS4; 11 EC50.
For the compound `O=C(NS(=O)(=O)c1ccc(NCC2CCOCC2)c([N+](=O)[O-])c1)c1ccc(N2CCN(Cc3ccccc3-c3ccc(Cl)cc3)CC2)cc1Oc1cnc2[nH]ccc2c1` [Example 1, 4-{4-[(4′-chloro-1,1′-biphenyl-2-yl)methyl]piperazin-1-yl}-N-({3-nitro-4-[(tetrahydro-2H-pyran-4-ylmethyl)amino]phenyl}sulfonyl)-2-(1H-pyrrolo[2,3-b]pyridin-5-yloxy)benzamide], the pEC50 was 6.15.

(Values after patent publication US20240043404A1 (AbbVie Inc., priority 2009, published 2024).)
